Test results as given in article PMC10885115, “Susceptibility of Tetranychus urticae to the Alkaloidal Extract of Zanthoxylum schreberi Bark: Phenotypic and Biochemical Insights for Biotechnological Exploitation” (BioTech, 2024).
Where “and” joins values, the source holds several entries; their conditions need not be identical. Equal values may be shown once. Read-outs that look alike come from different tables or passages of the source.

Tests used:
T. urticae = conditions: cited from earlier work
[1] = test system: T. urticae adult females (exposed mite population); experiment: Fecundity (oviposition) test for extract combined with commercial acaricides; type: in vivo, Tetranychus urticae; conditions: 0.06% chlorfenapyr, 0.075% cyflumetofen, 0.05% abamectin, 0.5% extract and combinations M2 to M4; surviving females after 72 h exposure
Procedure: (§1) Using the same methodology described in the previous section, the following treatments were evaluated in this test: absolute control (application of distilled water), relative control (10% ethanol), positive control A (clorfenapyr at 0.06%), positive control B (cyflumetofen at 0.075%), positive control C (abamectin at 0.05%), treatment 1 (0.5% extract), treatment 2 (0.5% extract + 0.06% clorfenapyr), treatment 3 (0.5% extract + 0.075% cyflumetofen), and treatment 4 (0.5% extract + 0.05% abamectin). Mortality assessments were conducted at 24, 48, and 72 h post-treatment application and adjusted using the Schneider–Orelli formula (Equation (1)). Fecundity was also measured by isolating five surviving females per treatment (after 72 h of exposure to treatments) in petri dishes. The number of eggs oviposited by each female was counted every 24 h over 5 days. Simultaneously with the susceptibility test, the repellent effect of the extract was measured by counting the number of surviving females placed outside the leaves after 24, 48, and 72 h. All laboratory tests were conducted under controlled conditions at 25 ± 2 °C, 60 ± 5% relative humidity, and a 12:12 (light/dark) photoperiod.

[2] = test system: T. urticae adult females (exposed mite population); experiment: Mortality test for extract combined with commercial acaricides (exposed mites); type: in vivo, Tetranychus urticae
Procedure: as §1

[3] = test system: T. cinnabarinus Boisdu-Val; set-up: method as in PMID 24861930; conditions: resistant strain; cited from earlier work
P450 monooxygenase (PMO) = experiment: PMO inhibition in T. urticae protein homogenate; type: biochemical, Tetranychus urticae; conditions: pure compounds, read-out: PMO IC50 (95% interval confidence)
Procedure: (§2) The protein homogenate from T. urticae adult females (n = 50) was prepared by homogenizing them in 500 μL of 0.1 M phosphate buffer (pH 7.2) in an ice bath. After homogenization, the mixture was centrifuged at 12,000× g for 20 min at 4 °C. Both untreated mites and those treated with 0.5% Z. schreberi bark extract were processed similarly. The protein content within the homogenate was quantified using the linearized Bradford micromethod, employing bovine serum albumin as an external standard. A calibration curve was established based on the ratio of absorbance measurements at 590 nm and 450 nm, ensuring linearity with varying protein concentrations. The resulting supernatant was subsequently stored at −20 °C for further enzyme analysis.
The PMO activity was measured by reducing hydrogen peroxide to oxidize 3,3′,5,5′-tetramethylbenzidine (TMBZ), following a previous procedure. Briefly, the protein homogenate (20 µL) was mixed in a microtiter plate well with 6 mM TMBZ (200 µL) working solution (TMBZ (0.01 g) in methanol (5 mL) and 0.25 M sodium acetate (pH 5.0, 15 mL)) and 3% H2O2 (25 µL) for 30 min at 25 °C. After this incubation period, the absorbance was read at 630 nm on a Varioskan LUX 96-well plate reader (Thermo Fisher Scientific, Waltham, MA, USA). The standard curve of heme peroxidase activity was prepared using Cytochrome C from equine heart (Merck, Milwakee, WI, USA). Total Cytochrome P450 monoxygenase was expressed as µmoles of Cytochrome P450 equivalent units (CPEU)/min/mg protein.
(§3) Further investigation involved determining the inhibition of the test enzymes (i.e., AChE, GST, esterase, and PMO). […] The final absorbance measurements of each treatment (At) and control (Ac) were related to the calculated enzyme inhibition percentage using Equation (3). (3) Enzyme Inhibition (%)=[…]
(§4) This determination was performed for each treatment concentration (extract and purified compound) to establish dose–response curves. The IC50 (half-maximal inhibitory concentration in μg/mL for extract and μM for pure compounds) was calculated via nonlinear regression analysis using GraphPad 7.0 (GraphPad Software LLC, Boston, MA, USA).

[4] = biological target: glutathione S-transferase (GST); experiment: GST inhibition in T. urticae protein homogenate; type: biochemical, Tetranychus urticae; conditions: pure compounds, read-out: GST IC50 (95% interval confidence)
Procedure: as §2
GST activity was assessed using 1-chloro-2, 4-dinitrobenzene (CDNB) as the substrate, following a previous procedure. Briefly, the reaction was initiated by mixing CDNB (50 mM in ethanol, 50 µL) and reduced glutathione (50 mM in 0.1 M phosphate-buffered saline (PBS), pH 6.5, 150 µL) in a 5 mL vial with phosphate buffer (0.1 M, pH 6.5 containing 1 mM EDTA, 2.78 mL). Subsequently, 20 µL of protein homogenate was added, and the solution was thoroughly mixed. An aliquot (200 µL) from the resulting mixture was dispensed into a microtiter plate well for measurement, with the procedure performed in triplicate for both biological and technical replicates. The absorbance of each reaction mixture at 340 nm was then recorded using kinetics on a Varioskan LUX 96-well plate reader (Thermo Fisher Scientific, Waltham, MA, USA) after a 10 min duration. The specific GST activity was calculated using the kinetic slope to convert μmoles of product per minute (9.6 mM^−1cm^−1 and 0.3 cm), thereby determining the specific enzyme activity expressed as μmol of substrate/min/mg protein.
as §3, §4

general esterases = experiment: General esterase inhibition in T. urticae protein homogenate; type: biochemical, Tetranychus urticae; conditions: pure compounds, read-out: Est IC50 (95% interval confidence)
Procedure: as §2
Enzyme activity of general esterases was assessed using p-nitrophenylacetate as substrate, following a previous procedure. In brief, the protein homogenate (10 µL) was mixed in a microtiter plate well with 1 mM p-nitrophenyl acetate (200 µL) in 50 mM phosphate buffer pH 7.4. The absorbance was measured at 405 nm after a 10 min incubation period using a Varioskan LUX 96-well plate reader (Thermo Fisher Scientific, Waltham, MA, USA). The specific esterase activity was calculated using the kinetic slope to convert μmoles of product per minute (6.53 mM^−1cm^−1 and 0.3 cm), thereby determining the specific enzyme activity expressed as μmol of substrate/min/mg protein.
as §3, §4

[5] = biological target: acetylcholinesterase (AChE) and butyrylcholinesterase (BuChE) from various sources; set-up: method as in PMID 37073143; conditions: most potent of 34 isoquinoline alkaloids; cited from earlier work
[6] = test system: T. urticae females from the unexposed rearing system; experiment: Preliminary mortality test with unexposed mites; type: in vivo, Tetranychus urticae; conditions: 0.4% chlorfenapyr (positive control), airbrush application
Procedure: A preliminary trial was conducted to determine the effect of Z. schreberi alkaloidal extract on mites for subsequent experiments, following the methodology outlined by Numa et al. (2015), with certain modifications. Briefly, the bioassay comprised a bean leaf with its underside facing upward, which was placed in a petri dish and its edges lined with cotton moistened using distilled water. Ten T. urticae females from the unexposed rearing system were situated on each leaf. The bioassay on females was driven by their pivotal role in population dynamics, as they are the primary contributors to new individuals. The net reproductive rate per generation (Ro) or population replacement rate is directly dependent on female reproductive capabilities. Consequently, any lethal or sublethal effects observed in females and oviposition will directly influence population growth. This approach led us to assess the potential of the extracts as a promising strategy for pest control, considering their impact on the crucial factor of population expansion. Subsequently, each dish was sealed with plastic wrap post-application of treatments. The evaluated treatments comprised an absolute control (mites without any application), a positive control (chlorfenapyr at 0.4%), and the alkaloidal extract of Z. schreberi at 2%. […] Deceased mites were counted 24 h post-application.

[7] = test system: T. urticae adult females (exposed mite population); experiment: Mortality test for Z. schreberi bark extract using exposed mites (leaf-immersion); type: in vivo, Tetranychus urticae; conditions: 0.06% chlorfenapyr (PC, commercially recommended dose)
Source text: The experimental setup involved a transparent cylindrical container with a 3.5 cm diameter filter paper disk placed at the bottom, moistened with distilled water. Bean leaf disks, previously immersed in the respective extract solution and air-dried, were then positioned on the paper disk. The container lid underwent modification, featuring a centrally located circular opening. A metal mesh, perforated with small holes, was affixed using silicone around this opening to facilitate ventilation and prevent mites from escaping. Concentrations ranging from 2, 1, 0.5, and 0.25, to 0.125% of the Z. schreberi bark alkaloidal extract were evaluated diluted in 10% ethanol. These concentrations were selected since they comprise typical doses for botanical pesticides, and, consequently, they were standardized in previous studies in our laboratory to assess botanical extracts. Additionally, three control treatments were employed: an absolute control (application of distilled water), a relative control (10% ethanol), and a positive control (clorfenapyr at 0.06%). Mortality assessments were conducted at 24, 48, and 72 h post-treatment application. The obtained mortality data were adjusted using Schneider–Orelli’s formula (Equation (1)). […]

[8] = test system: T. urticae adult females (exposed mite population); experiment: Repellency test for Z. schreberi bark extract using exposed mites; type: in vivo, Tetranychus urticae; conditions: 0.06% chlorfenapyr
[9] = biological target: T1, acetylcholinesterase (AChE) (Tetranychus urticae, UniProt D8V7J9); type: biochemical; conditions: pure compounds; T. urticae protein homogenate; read-out: AChE IC50 (95% interval confidence)
T1 sequence (D8V7J9 74-665): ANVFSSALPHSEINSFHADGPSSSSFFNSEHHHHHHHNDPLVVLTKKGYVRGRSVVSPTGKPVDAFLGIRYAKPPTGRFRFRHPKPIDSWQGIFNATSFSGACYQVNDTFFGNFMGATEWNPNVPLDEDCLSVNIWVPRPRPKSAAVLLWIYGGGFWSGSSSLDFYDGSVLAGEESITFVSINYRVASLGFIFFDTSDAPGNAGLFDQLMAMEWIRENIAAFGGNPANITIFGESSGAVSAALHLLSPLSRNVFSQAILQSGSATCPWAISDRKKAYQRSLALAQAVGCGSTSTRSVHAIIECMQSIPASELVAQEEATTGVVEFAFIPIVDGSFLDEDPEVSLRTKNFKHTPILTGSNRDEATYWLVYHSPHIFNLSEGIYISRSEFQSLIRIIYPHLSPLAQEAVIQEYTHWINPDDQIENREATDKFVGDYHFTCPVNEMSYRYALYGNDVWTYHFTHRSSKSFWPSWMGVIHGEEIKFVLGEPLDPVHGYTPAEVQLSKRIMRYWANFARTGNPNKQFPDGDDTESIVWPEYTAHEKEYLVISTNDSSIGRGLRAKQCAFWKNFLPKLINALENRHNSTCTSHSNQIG
Procedure: The protein homogenate from T. urticae adult females (n = 50) was prepared by homogenizing them in 500 μL of 0.1 M phosphate buffer (pH 7.2) in an ice bath. After homogenization, the mixture was centrifuged at 12,000× g for 20 min at 4 °C. […] The protein content within the homogenate was quantified using the linearized Bradford micromethod [40], employing bovine serum albumin as an external standard. A calibration curve was established based on the ratio of absorbance measurements at 590 nm and 450 nm, ensuring linearity with varying protein concentrations [40]. The resulting supernatant was subsequently stored at −20 °C for further enzyme analysis.
The Ellman method was employed to assess AChE activity in both untreated and Z. schreberi-treated mites, following a previous procedure [41]. […]
Further investigation involved determining the inhibition of the test enzymes (i.e., AChE, GST, esterase, and PMO). […] The final absorbance measurements of each treatment (At) and control (Ac) were related to the calculated enzyme inhibition percentage using Equation (3). […]

COCCOC(=O)C(C#N)(C(=O)c1ccccc1C(F)(F)F)c1ccc(C(C)(C)C)cc1 (stereo not shown) [cyflumetofen]
LD50 (T. urticae; susceptible strain of T. urticae): 0.00011% | Average fecundity per female over 5 days compared to controls AC and RC [1]: statistically significant reduction | Corrected average mortality after 72 h ([2]; 0.075% cyflumetofen alone (PCB)): 32.5% | LD50 [3]: 0.0016%

COc1ccc2c(c[n+](C)c3c4cc5c(cc4ccc23)OCO5)c1OC [Compound 4, chelerythrine]
IC50 (P450 monooxygenase (PMO)): 89.6 µM | IC50 [4]: 11.7 µM | IC50 (general esterases): > 300 µM

COc1ccc2cc3[n+](cc2c1OC)CCc1cc2c(cc1-3)OCO2 [Compound 6, berberine]
IC50 (P450 monooxygenase (PMO)): 386 µM | IC50 [4]: 1.24 µM | IC50 [5]: 0.72 µg/mL | IC50 (general esterases): > 300 µM

COc1c(O)ccc2cnc3c4cc5c(cc4ccc3c12)OCO5 [Compound 9, zanthoxyline]
IC50 (P450 monooxygenase (PMO)): 8.37 µM | IC50 [4]: 21.5 µM | IC50 (general esterases): 289 µM

COc1ccc2cc3[n+](cc2c1O)CCc1cc2c(cc1-3)OCO2 [Compound 3, berberrubine]
IC50 (P450 monooxygenase (PMO)): 62.7 µM | IC50 [4]: 5.61 µM | IC50 (general esterases): > 300 µM

CCOCn1c(-c2ccc(Cl)cc2)c(C#N)c(Br)c1C(F)(F)F [chlorfenapyr]
LD50 (T. urticae; two resistant strains of T. urticae, listed as clorfenapyr): 0.08% and 0.29% | Average fecundity per female over 5 days compared to controls AC and RC [1]: statistically significant reduction | Corrected mortality after 24 h [6]: 93.3% | Corrected average mortality after 72 h [7]: 24.6% | Corrected average mortality after 72 h ([2]; 0.06% chlorfenapyr alone (PCA)): 20.9% | Repellency after 72 h [8]: lowest repellency

abamectin
Average fecundity per female over 5 days compared to controls AC and RC [1]: statistically significant reduction

fagaridine [Compound 5]
IC50 (P450 monooxygenase (PMO)): 20.9 µM | IC50 [4]: 112 µM | IC50 [9]: 14.6 µM | IC50 (general esterases): > 300 µM
